Results on 22 molecules are retold here after patent US20180280377A1, “Imidazo[4,5-c]quinolin-2-one Compounds and Their Use in Treating Cancer” (ASTRAZENECA AB, priority 2015, published 2018).

SMILES strings stand for the structures.

In one assay the target is T1, ATM (Homo sapiens, UniProt Q13315).
T1 construct: endogenous in cells; host or cells: HT29 cells (ECACC #85061109)
Nature of the assay: ATM cellular potency assay (pATM Ser1981 in irradiated HT29 cells). The assay is classed as cell-based. The note with it: 1 h compound, X-ray irradiation, pATM (Ser1981); Table 2; read-out: Assay a) ATM Cell IC50. Here is the method:
(§1) The following assays were used to measure the effects of the compounds of the present invention: a) ATM cellular potency assay; b) PI3K cellular potency assay; c) mTOR cellular potency assay; d) ATR cellular potency assay. During the description of the assays, generally: • i. […] IC50 values were calculated using a smart fitting model in Genedata.
Most ATM molecules in the cell are rapidly phosphorylated on this site after doses of radiation as low as 0.5 Gy, and binding of a phosphospecific antibody is detectable after the introduction of only a few DNA double-strand breaks in the cell.
The rationale of the pATM assay is to identify inhibitors of ATM in cells. HT29 cells are incubated with test compounds for 1 h prior to X-ray-irradiation. 1 h later the cells are fixed and stained for pATM (Ser1981). The fluorescence is read on the arrayscan imaging platform.
The following morning compounds of Formula (I) in 100% DMSO were added to assay plates by acoustic dispensing. After 1 h incubation at 37° C. and 5% CO2, plates (up to 6 at a time) were irradiated using the X-RAD 320 instrument (PXi) with equivalent to 600 cGy. Plates were returned to the incubator for a further 1 h. Then cells were fixed by adding 20 μl of 3.7% formaldehyde in PBS solution and incubating for 20 minutes at r.t. before being washed with 50μl/well PBS, using a Biotek EL405 plate washer. Then 20 μl of 0.1% Triton X100 in PBS was added and incubated for 20 minutes at r.t., to permeabalise cells. Then the plates were washed once with 50 μl/well PBS, using a Biotek EL405 plate washer.
After 1 h incubation at r.t., the plates were washed three times with 50 μl/well PBS, using a Biotek EL405 plate washer, and plates were sealed and kept in PBS at 4° C. until read. Plates were read using an ArrayScan VTI instrument, using an XF53 filter with 10× objective.

A further assay concerns the target T2, ATR (Homo sapiens, UniProt Q13535).
T2 construct: endogenous in cells; host or cells: HT29 cells (ECACC #85061109)
Nature of the assay: ATR cellular potency assay (pChk1 Ser345 in HT29 cells after 4NQO). The assay is classed as cell-based. The conditions noted are these: pChk1 (Ser 345); Table 2; read-out: Assay b) ATR Cell IC50. How it is done:
as §1
ATR is a PI3-kinase-related kinase which phosphorylates multiple substrates on serine or threonine residues in response to DNA damage during or replication blocks. Chk1, a downstream protein kinase of ATR, plays a key role in DNA damage checkpoint control. Activation of Chk1 involves phosphorylation of Ser317 and Ser345 (the latter regarded as the preferential target for phosphorylation/activation by ATR).
The following morning compound of Formula (I) in 100% DMSO were added to assay plates by acoustic dispensing. After 1 h incubation at 37° C. and 5% CO2, 40 nl of 3 mM 4NQO in 100% DMSO was added to all wells by acoustic dispensing, except minimum control wells which were left untreated with 4NQO to generate a null response control. Plates were returned to the incubator for a further 1 h. Then cells were fixed by adding 20 μl of 3.7% formaldehyde in PBS solution and incubating for 20 mins at r.t. Then […] of 0.1% Triton X100 in PBS was added and incubated for 10 minutes at r.t., to permeabalise cells. Then the plates were washed once with […] PBS, using a Biotek EL405 plate washer.
After 2 h incubation at r.t., the plates were washed three times with […] PBS, using a Biotek EL405 plate washer, and plates were then sealed with black plate seals until read. Plates were read using an ArrayScan VTI instrument, using an XF53 filter with 10× objective.

T2 sequence (Q13535 whole entry): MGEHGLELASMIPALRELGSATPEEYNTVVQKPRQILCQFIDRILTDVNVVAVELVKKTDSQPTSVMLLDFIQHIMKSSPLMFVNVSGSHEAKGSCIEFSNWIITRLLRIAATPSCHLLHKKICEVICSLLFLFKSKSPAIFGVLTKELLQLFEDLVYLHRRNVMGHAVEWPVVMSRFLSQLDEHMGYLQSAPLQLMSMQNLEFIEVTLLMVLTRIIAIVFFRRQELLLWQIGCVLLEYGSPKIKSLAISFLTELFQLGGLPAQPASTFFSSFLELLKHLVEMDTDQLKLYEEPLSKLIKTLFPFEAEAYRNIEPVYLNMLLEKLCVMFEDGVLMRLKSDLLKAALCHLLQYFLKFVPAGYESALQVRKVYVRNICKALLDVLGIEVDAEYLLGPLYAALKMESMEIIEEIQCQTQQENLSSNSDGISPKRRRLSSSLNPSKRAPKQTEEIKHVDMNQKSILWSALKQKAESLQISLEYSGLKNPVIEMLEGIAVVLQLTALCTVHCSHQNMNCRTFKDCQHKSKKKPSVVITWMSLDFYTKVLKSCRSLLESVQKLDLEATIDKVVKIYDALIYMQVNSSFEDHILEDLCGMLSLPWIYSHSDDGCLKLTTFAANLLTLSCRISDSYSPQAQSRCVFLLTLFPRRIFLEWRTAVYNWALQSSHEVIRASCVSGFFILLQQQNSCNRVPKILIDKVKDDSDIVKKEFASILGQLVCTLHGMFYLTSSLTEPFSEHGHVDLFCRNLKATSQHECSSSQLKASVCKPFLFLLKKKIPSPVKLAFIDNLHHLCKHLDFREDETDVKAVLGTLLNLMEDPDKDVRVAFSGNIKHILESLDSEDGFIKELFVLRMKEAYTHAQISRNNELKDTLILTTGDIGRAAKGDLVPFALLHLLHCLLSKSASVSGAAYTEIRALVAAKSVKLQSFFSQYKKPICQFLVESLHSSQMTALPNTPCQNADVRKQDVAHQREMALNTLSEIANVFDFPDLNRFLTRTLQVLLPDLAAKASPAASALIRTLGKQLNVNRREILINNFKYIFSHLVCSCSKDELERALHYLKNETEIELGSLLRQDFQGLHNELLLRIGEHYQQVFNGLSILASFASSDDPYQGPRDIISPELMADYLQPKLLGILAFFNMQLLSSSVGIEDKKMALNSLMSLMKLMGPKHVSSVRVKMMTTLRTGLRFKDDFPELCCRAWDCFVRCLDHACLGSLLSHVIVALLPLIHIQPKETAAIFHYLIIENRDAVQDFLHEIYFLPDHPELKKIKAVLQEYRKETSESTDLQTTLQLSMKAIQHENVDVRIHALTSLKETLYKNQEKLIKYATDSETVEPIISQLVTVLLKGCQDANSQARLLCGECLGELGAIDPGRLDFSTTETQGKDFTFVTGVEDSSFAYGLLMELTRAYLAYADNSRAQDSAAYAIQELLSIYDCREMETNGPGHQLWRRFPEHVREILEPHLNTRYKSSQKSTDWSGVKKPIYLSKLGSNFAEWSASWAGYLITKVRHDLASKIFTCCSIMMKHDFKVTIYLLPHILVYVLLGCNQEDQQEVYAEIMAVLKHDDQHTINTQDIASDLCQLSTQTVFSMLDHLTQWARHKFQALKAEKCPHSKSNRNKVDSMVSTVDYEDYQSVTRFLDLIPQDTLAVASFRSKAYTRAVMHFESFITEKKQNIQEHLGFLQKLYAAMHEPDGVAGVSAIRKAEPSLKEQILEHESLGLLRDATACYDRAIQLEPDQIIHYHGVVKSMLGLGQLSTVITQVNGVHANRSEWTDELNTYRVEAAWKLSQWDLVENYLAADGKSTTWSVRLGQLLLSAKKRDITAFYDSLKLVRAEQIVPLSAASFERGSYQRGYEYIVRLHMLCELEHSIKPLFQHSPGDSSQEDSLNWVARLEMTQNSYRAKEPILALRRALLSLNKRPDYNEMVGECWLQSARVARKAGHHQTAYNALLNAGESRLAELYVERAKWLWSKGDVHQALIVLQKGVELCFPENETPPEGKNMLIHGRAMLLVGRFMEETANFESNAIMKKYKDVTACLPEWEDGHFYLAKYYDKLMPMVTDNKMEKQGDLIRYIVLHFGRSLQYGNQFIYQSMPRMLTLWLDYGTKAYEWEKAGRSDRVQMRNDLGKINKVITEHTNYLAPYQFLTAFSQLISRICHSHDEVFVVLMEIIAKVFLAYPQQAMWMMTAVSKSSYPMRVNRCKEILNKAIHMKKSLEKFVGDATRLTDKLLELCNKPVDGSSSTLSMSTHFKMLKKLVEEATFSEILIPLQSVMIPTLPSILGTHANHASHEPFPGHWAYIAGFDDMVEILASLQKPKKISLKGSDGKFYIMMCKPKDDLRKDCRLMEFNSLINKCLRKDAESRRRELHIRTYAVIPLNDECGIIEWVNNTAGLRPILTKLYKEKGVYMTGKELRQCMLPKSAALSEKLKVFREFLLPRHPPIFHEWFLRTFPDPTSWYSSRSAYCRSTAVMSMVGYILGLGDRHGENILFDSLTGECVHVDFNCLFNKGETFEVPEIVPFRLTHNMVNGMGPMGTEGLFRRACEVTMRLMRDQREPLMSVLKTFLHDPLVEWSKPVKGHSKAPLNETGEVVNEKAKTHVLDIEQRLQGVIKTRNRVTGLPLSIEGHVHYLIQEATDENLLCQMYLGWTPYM
T2 sequence (Q8WXE1 whole entry partner): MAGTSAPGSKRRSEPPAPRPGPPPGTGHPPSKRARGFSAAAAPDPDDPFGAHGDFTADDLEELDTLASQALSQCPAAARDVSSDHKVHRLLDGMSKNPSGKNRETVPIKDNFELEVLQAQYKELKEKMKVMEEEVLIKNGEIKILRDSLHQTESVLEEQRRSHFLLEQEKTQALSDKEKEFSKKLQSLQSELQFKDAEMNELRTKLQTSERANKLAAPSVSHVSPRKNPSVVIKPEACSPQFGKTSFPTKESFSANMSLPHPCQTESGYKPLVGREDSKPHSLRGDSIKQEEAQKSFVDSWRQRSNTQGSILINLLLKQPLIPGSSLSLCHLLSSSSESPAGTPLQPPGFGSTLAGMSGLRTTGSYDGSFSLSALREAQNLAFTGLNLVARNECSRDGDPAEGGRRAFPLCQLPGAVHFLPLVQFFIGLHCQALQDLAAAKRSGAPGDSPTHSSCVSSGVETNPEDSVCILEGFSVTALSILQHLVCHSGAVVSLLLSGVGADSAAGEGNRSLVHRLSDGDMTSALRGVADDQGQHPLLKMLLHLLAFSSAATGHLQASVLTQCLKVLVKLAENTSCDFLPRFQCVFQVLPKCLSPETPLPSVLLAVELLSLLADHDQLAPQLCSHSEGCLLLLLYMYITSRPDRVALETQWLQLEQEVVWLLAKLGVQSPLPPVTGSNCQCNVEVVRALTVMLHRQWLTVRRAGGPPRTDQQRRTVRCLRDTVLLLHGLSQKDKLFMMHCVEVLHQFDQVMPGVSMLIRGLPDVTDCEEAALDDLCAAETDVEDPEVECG

Turning to `CO[C@H]1CC[C@H](n2c(=O)n(C)c3cnc4ccc(-c5ccc(N6CC(N(C)C)C6)nc5)cc4c32)C1` (single isomer, unassigned) [Example 22, 8-[6-[3-(dimethylamino)azetidin-1-yl]-3-pyridyl]-1-[trans-3-methoxycyclopentyl]-3-methyl-imidazo[4,5-c]quinolin-2-one], the IC50 – broadly, the point on the concentration scale where inhibition reaches its midpoint – worked out at 13.4 nM at ATM and 6710 nM on ATR.

For `CO[C@H]1C[C@H](n2c(=O)n(C)c3cnc4ccc(-c5ccc(N6CC[C@@H](N(C)C)C6)nc5)cc4c32)C1` [Example 11], the IC50 is 0.77 nM at ATM and 1080 nM at ATR.

As to `CO[C@H]1CCC[C@H](n2c(=O)n(C)c3cnc4ccc(-c5ccc(N6CC(N(C)C)C6)nc5)cc4c32)C1` (single isomer, unassigned) [Example 56, 8-[6-[3-(dimethylamino)azetidin-1-yl]-3-pyridyl]-1-[trans-3-methoxycyclohexyl]-3-methyl-imidazo[4,5-c]quinolin-2-one], the results for the half-maximal inhibitory concentration (IC50) at ATM and at ATR were 15.7 nM and 1190 nM, respectively.

Regarding `CO[C@H]1CC[C@@H](n2c(=O)n(C)c3cnc4ccc(-c5ccc(N6CC[C@@H](N(C)C)C6)nc5)cc4c32)CC1` (single isomer, unassigned) [Example 44], the concentration for half-maximal inhibition (IC50) on ATM was determined as 0.889 nM; on ATR, 1120 nM.

In the case of `CO[C@H]1C[C@@H](n2c(=O)n(C)c3cnc4ccc(-c5ccc(N6CC[C@H](N(C)C)C6)nc5)cc4c32)C1` [Example 18], the results for the IC50 at ATM and at ATR were 12.7 nM and 17500 nM, respectively.

On to `CO[C@H]1CCC[C@H](n2c(=O)n(C)c3cnc4ccc(-c5ccc(N6CCC(N(C)C)CC6)nc5)cc4c32)C1` (single isomer, unassigned) [Example 54, 8-[6-[4-(dimethylamino)-1-piperidyl]-3-pyridyl]-1-[trans-3-methoxycyclohexyl]-3-methyl-imidazo[4,5-c]quinolin-2-one], for which the IC50 was 0.061 nM on ATM and above 25600 nM on ATR.

In the case of `CO[C@H]1CC[C@H](n2c(=O)n(C)c3cnc4cc(F)c(-c5ccc(N6CC(N(C)C)C6)nc5)cc4c32)C1` (single isomer, unassigned) [Example 30, 8-[6-[3-(dimethylamino)azetidin-1-yl]-3-pyridyl]-7-fluoro-1-[trans-3-methoxycyclopently]-3-methyl-imidazo[4,5-c]quinolin-2-one], the IC50 at ATM is 24.9 nM; on ATR, above 30000 nM.

On to `CO[C@H]1CC[C@H](n2c(=O)n(C)c3cnc4cc(F)c(-c5ccc(N6CC(N(C)C)C6)nc5)cc4c32)C1` (single isomer, unassigned) [Example 29, 8-[6-[3-(dimethylamino)azetidin-1-yl]-3-pyridyl]-7-fluoro-1-[trans-3-methoxycyclopentyl]-3-methyl-imidazo[4,5-c]quinolin-2-one], for which the 50% inhibitory concentration (IC50) is 9.68 nM on ATM and above 30000 nM at ATR.

Turning to `CO[C@@H]1CCC[C@H](n2c(=O)n(C)c3cnc4ccc(-c5ccc(N6CC(N(C)C)C6)nc5)cc4c32)C1` (single isomer, unassigned) [Example 50, 8-[6-[3-(dimethylamino)azetidin-1-yl]-3-pyridyl]-1-[cis-3-methoxycyclohexyl]-3-methyl-imidazo[4,5-c]quinolin-2-one], the IC50 at ATM was determined as 16.7 nM; at ATR, 1970 nM.

Regarding `CO[C@@H]1CCC[C@H](n2c(=O)n(C)c3cnc4ccc(-c5ccc(N6CC[C@@H](N(C)C)C6)nc5)cc4c32)C1` (single isomer, unassigned) [Example 47], the figures for the half-maximal inhibitory concentration (IC50) on ATM and at ATR were 2.7 nM and 1800 nM, respectively.

Turning to `CN(C)[C@@H]1CCN(c2ccc(-c3ccc4ncc5c(c4c3)n([C@H]3CCOC3)c(=O)n5C)cn2)C1` [Example 8], the figures for the IC50 on ATM and at ATR were 1.04 nM and 261 nM, respectively.

Take `CNC1CCN(c2ccc(-c3ccc4ncc5c(c4c3)n([C@@H]3CCCOC3)c(=O)n5C)cn2)CC1` [Example 58, 3-methyl-8-[6-[4-(methylamino)-1-piperidyl]-3-pyridyl]-1-[(3R)-tetrahydropyran-3-yl]imidazo[4,5-c]quinolin-2-one]: the IC50 was 2.25 nM on ATM and above 21800 nM at ATR.

On to `CN(C)C1CCN(c2ccc(-c3ccc4ncc5c(c4c3)n(C3CCC3)c(=O)n5C)cn2)CC1` [Example 37, 1-cyclobutyl-8-[6-[4-(dimethylamino)-1-piperidyl]-3-pyridyl]-3-methyl-imidazo[4,5-c]quinolin-2-one], for which the concentration for half-maximal inhibition (IC50) is 0.911 nM at ATM and above 30000 nM on ATR.

On to `CN(C)[C@H]1CCN(c2ccc(-c3ccc4ncc5c(c4c3)n([C@@H]3CCCOC3)c(=O)n5C)cn2)C1` [Example 16], for which the IC50 at ATM was 18.6 nM; at ATR, above 22300 nM.

As for `CN(C)C1CN(c2ccc(-c3ccc4ncc5c(c4c3)n([C@@H]3CCCOC3)c(=O)n5C)cn2)C1` [Example 27, 8-[6-[3-(dimethylamino)azetidin-1-yl]-3-pyridyl]-3-methyl-1-[(3R)-tetrahydropyran-3-yl]imidazo[4,5-c]quinolin-2-one], the IC50 on ATM came out at 5.9 nM; on ATR, 5950 nM.

For the molecule `CO[C@H]1CCC[C@H](n2c(=O)n(C)c3cnc4ccc(-c5ccc(N6CC[C@@H](N(C)C)C6)nc5)cc4c32)C1` (single isomer, unassigned) [Example 51], the figures for the half-maximal inhibitory concentration (IC50) on ATM and on ATR were 0.589 nM and 90.6 nM, respectively.

Take `CO[C@H]1CCC[C@H](n2c(=O)n(C)c3cnc4ccc(-c5ccc(N6CC[C@@H](N(C)C)C6)nc5)cc4c32)C1` (single isomer, unassigned) [Example 52]: the IC50 at ATM is 0.112 nM; at ATR it was 61.6 nM.

In the case of `CN(C)C1CCN(c2ccc(-c3cc4c(cc3F)ncc3c4n([C@H]4CCCOC4)c(=O)n3C)cn2)CC1` [Example 41, 8-[6-[4-(dimethylamino)-1-piperidyl]-3-pyridyl]-7-fluoro-3-methyl-1-[(3S)-tetrahydropyran-3-yl]imidazo[4,5-c]quinolin-2-one], the concentration for half-maximal inhibition (IC50) was 2.02 nM at ATM and above 30000 nM on ATR.

Take `CO[C@@H]1CCC[C@H](n2c(=O)n(C)c3cnc4ccc(-c5ccc(N6CC[C@@H](N(C)C)C6)nc5)cc4c32)C1` (single isomer, unassigned) [Example 48]: the IC50 on ATM worked out at 2.34 nM; on ATR, 201 nM.

Consider `CO[C@@H]1CCC[C@H](n2c(=O)n(C)c3cnc4ccc(-c5ccc(N6CCC(N(C)C)CC6)nc5)cc4c32)C1` (single isomer, unassigned) [Example 45], for which the half-inhibitory concentration (IC50) at ATM is 0.618 nM; on ATR, above 30000 nM.

Consider `CN(C)C1CCN(c2ccc(-c3ccc4ncc5c(c4c3)n(C3COC3)c(=O)n5C)cn2)CC1` [Example 38, 8-[6-[4-(dimethylamino)-1-piperidyl]-3-pyridyl]-3-methyl-1-(oxetan-3-yl)imidazo[4,5-c]quinolin-2-one], for which the IC50 is 3.91 nM at ATM and above 30000 nM on ATR.

`CO[C@H]1CC[C@H](n2c(=O)n(C)c3cnc4ccc(-c5ccc(N6CC(N(C)C)C6)nc5)cc4c32)CC1` [Example 25, 8-[6-[3-(dimethylamino)azetidin-1-yl]-3-pyridyl]-1-(trans-4-methoxycyclohexyl)-3-methyl-imidazo[4,5-c]quinolin-2-one]: the results for the concentration for half-maximal inhibition (IC50) on ATM and at ATR were 6.61 nM and 2520 nM, respectively.
